SMILES strings stand for the structures. Where only a bound is given, the exact number is not on record here.

One assay deals with T1, human Syk (GST-Syk) (Homo sapiens, UniProt P43405).
T1 construct: A cDNA fragment encoding human Syk openreading frame was cloned; made in house; host or cells: Sf21 insect cells (baculovirus, transfer vector pAcG2T)
Description: Syk tyrosine kinase inhibitory assay. The class given is biochemical. The note with it: Table 11; read-out: Activity grade. An excerpt: [Syk Tyrosine Kinase Inhibitory Assay]
(1) Preparation of Syk Protein
A cDNA fragment encoding human Syk openreading frame was cloned from total RNA of human Burkitt's lymphoma B cell lines, Raji (American Type Culture Collection), with the use of RT-PCR method. The cDNA fragment was inserted into pAcG2T (Pharmingen, San Diego, Calif.) to construct a baculovirus transfer vector. Then the vector, together with the linearized baculovirus (BaculoGold™, Pharmingen), was used to transfect Sf21 cells (Invitrogen, San Diego, Calif.).
Generated recombinant baculovirus was cloned and amplified in Sf21 cells. Sf21 cells were infected with this amplified high titer virus to produce a chimeric protein of Syk kinase fused by glutathione-S-transferase (GST).
The resulting GST-Syk was purified with the use of glutathione column (Amersham Pharmacia Biotech AB, Uppsala, Sweden) according to the manufacturer's instruction.
(2) Synthesize of a Peptide
Next, a peptide fragment of 30 residues including two tyrosine residues, […], was synthesized by a peptide synthesizer. The N-terminal of the fragment was then biotinylated to obtain biotinylated activation loop peptide (AL).
(3) The Measurement of Syk Tyrosine Kinase Activity
All reagents were diluted with the Syk kinase assay buffer (50 mM Tris-HCl (pH 8.0), 10 mM MgCl2, 0.1 mM Na3VO4, 0.1% BSA, 1 mM DTT). First, a mixture (35 μl) including […] of GST-Syk and 0.5 μg of AL was put in each well in 96-well plates. Then 5 μl of a test compound in the presence of 2.5% dimethylsulfoxide (DMSO) was added to each well. To this mixture was added […] (10 μl) to initiate the kinase reaction. The final reaction mixture (50 μl) consists of 0.65 nM GST-Syk, 3 μM AL, 30 μM ATP, a test compound, 0.25% DMSO, and a Syk kinase assay buffer.
The mixture was incubated for 1 hr at room temperature, and the reaction was terminated by the addition of 120 μl of termination buffer (50 mM Tris-HCl (pH 8.0), 10 mMEDTA, 500 mM NaCl, 0.1% BSA). The mixture was transferred to streptavidin-coated plates and incubated for 30 min at room temperature to combine biotin-AL to the plates. After washing the plates with Tris-buffered saline (TBS) (50 mM Tris-HCl (pH 8.0), 138 mM NaCl, 2.7 mM KCl) containing 0.05% Tween-20 for 3 times, 100 μl of antibody solution consisting of 50 mM Tris-HCl (pH 8.0), 138 mM NaCl, 2.7 mM KCl, 1% BSA, 60 ng/ml anti-phosphotyrosine monoclonal antibody, 4G10 (Upstate Biotechnology), which is labeled with europium by Amersham Pharmacia's kit in advance, was added and incubated at room temperature for 60 min. After washing, 100 μl of enhancement solution (Amersham pharmacia Biotech) was added and then time-resolved fluorescence was measured by multi-label counter ARVO (Wallac Oy, Finland) at 340 nm for excitation and 615 nm for emission with 400 msec of delay and 400 msec of window.
Regarding `COCCN(C)c1ccc(-c2cc3nccn3c(Nc3ccc(Br)cc3)n2)cc1OC` [Example 12-46], the IC50 was less than 500 nM.

With `COCCN(C)c1ccc(-c2cc3nccn3c(Nc3ccccc3)n2)cc1OC` [Example 12-41], the IC50 was less than 500 nM.

Turning to `COc1ccc(-c2cc3nccn3c(Nc3cccc(C(F)(F)F)c3)n2)cc1OC` [Example 12-13], the IC50 was 500 to 2000 nM.

With `COc1cc(-c2cc3nccn3c(Nc3cccc(S(C)(=O)=O)c3)n2)ccc1N1CCOCC1` [Example 12-60], the IC50 was less than 500 nM.

For the molecule `COc1ccc(-c2cc3nccn3c(Nc3cnccc3C(N)=O)n2)cc1OC` [Example 12-61], the IC50 fell in the range of 500 to 2000 nM.

Consider `COc1ccc(Nc2nc(-c3ccc(N4CCOCC4)c(OC)c3)cc3nccn23)cc1` [Example 12-37], for which the IC50 is less than 500 nM.

The same assay, now with this note: Table 13; read-out: Activity grade.
On to `COc1ccc(-c2cc3ncnn3c(Sc3ccc(/C=C/C(=O)O)cc3)n2)cc1OC` [Example 14-10], for which the IC50 was less than 500 nM.

As to `CCC(C)Sc1nc(-c2ccc(OC)c(OC)c2)cc2nccn12` (centres unmarked) [Example 14-20], the IC50 was less than 500 nM.

In the case of `c1ccc(Sc2nc(-c3ccccc3)cc3ncnn23)cc1` [Example 14-7], the IC50 was 2000 to 10000 nM.

Staying with this assay, now noted: Table 15; read-out: Activity grade.
Turning to `COc1ccc(-c2cc3nccn3c(Sc3ccc(S(=O)(=O)N4CCCCC4)cc3)n2)cc1OC` [Example 16-2], the IC50 is less than 500 nM.

For the molecule `COc1ccc(-c2cc3nccn3c(Sc3nnnn3C)n2)cc1OC` [Example 16-1], the IC50 is less than 500 nM.

The same assay, now with this note: Table 17; IC50 classes; read-out: Activity grade.
With `COc1ccc(-c2cc3nccn3c(Nc3ccc(C(=O)NCC(O)CO)cc3)n2)cc1OC` (centres unmarked) [Example 5], the IC50 is less than 500 nM.

Turning to `COc1cc(-c2cc3nccn3c(Nc3ncccc3C(N)=O)n2)ccc1N1CCOCC1` [Example 38], the IC50 is less than 500 nM.

Take `COc1ccc(-c2cc3nccn3c(N(C)c3ccncc3)n2)cc1OC` [Example 36]: the IC50 lay in the range of 2000 to 10000 nM.

The same assay, now with this note: in vitro; compounds as yielded by solid phase synthesis, purity about 40 to 90%.
Turning to `CCOC(=O)CCNS(=O)(=O)c1ccc(-c2cc3nccn3c(SCC)n2)cc1OC` [Example 2-11], the “Activity grade (IC50 class)” value was “C-D”.

`CCSc1nc(-c2ccc(S(=O)(=O)N3CCOCC3)c(OC)c2)cc2nccn12` [Example 2-6]: the “Activity grade (IC50 class)” value was “C-D”.

In the case of `COc1ccc(-c2cc3nccn3c(N3CCN(C4CCCCC4)CC3)n2)cc1OC` [Example 9-48], the “Activity grade (IC50 class)” value is recorded as “C-D”.

For `COc1ccc(-c2cc3nccn3c(Sc3ccc(CC(=O)O)cc3)n2)cc1OC` [Example 13-19], the “Activity grade (IC50 class)” value is listed as “C-D”.

Staying with this assay, now noted: in vitro; compounds as yielded by solid phase synthesis, purity about 40 to 90%; read-out: Activity grade (IC50 class).
On to `COc1ccc(-c2cc3nccn3c(NC3CCCC[C@@H]3N)n2)cc1OC` (some centres unmarked) [Example 9-86], for which the IC50 was 500 to 2000 nM.

Regarding `COc1ccc(-c2cc3ncnn3c(Nc3ccc4cn[nH]c4c3)n2)cc1OC` [Example 11-103], the IC50 was less than 500 nM.

With `COc1ccc(-c2cc3nccn3c(Nc3ccc(NCCN(C)C)cc3)n2)cc1OC` [Example 11-74], the IC50 was less than 500 nM.

As to `COc1ccc(-c2cc3nccn3c(N3CCN(CCO)CC3)n2)cc1OC` [Example 9-51], the IC50 lay within 2000 to 10000 nM.

Take `COc1ccc(-c2cc3nccn3c(N3CCN(c4ccc(C(C)=O)cc4)CC3)n2)cc1OC` [Example 9-36]: the IC50 was in the range of 2000 to 10000 nM.

For the molecule `COc1ccc(-c2cc3nccn3c(Sc3c(Cl)cccc3Cl)n2)cc1OC` [Example 13-10], the IC50 fell in the range of 500 to 2000 nM.

Turning to `CCSc1nc(-c2ccc(OC)c(OCC3CCCCO3)c2)cc2nccn12` (centres unmarked) [Example 4-5], the IC50 fell in the range of 500 to 2000 nM.

As for `COc1ccc(-c2cc3nccn3c(Nc3ccc(CCC(=O)O)cc3)n2)cc1OC` [Example 11-24], the IC50 is less than 500 nM.

For the molecule `COc1ccc(-c2cc3nccn3c(Nc3ccccc3S(=O)(=O)N(C)C)n2)cc1OC` [Example 11-123], the IC50 was less than 500 nM.

`COc1ccc(-c2cc3nccn3c(Nc3ccc4c(c3)CCC(C(=O)O)C4)n2)cc1OC` (centres unmarked) [Example 11-5]: the IC50 is less than 500 nM.

For the molecule `COc1ccc(-c2cc3nccn3c(N(C)c3ccc(F)cc3F)n2)cc1OC` [Example 11-44], the IC50 is less than 500 nM.

On to `COc1ccc(-c2cc3nccn3c(N3CCCC(CO)C3)n2)cc1OC` (centres unmarked) [Example 9-65], for which the IC50 was in the range of 500 to 2000 nM.

As to `COc1cc(-c2cc3nccn3c(Nc3ccccc3C(N)=O)n2)ccc1N1CCOCC1` [Example 9-99], the IC50 was less than 500 nM.

`CCSc1nc(-c2ccc(OC)c(OC)c2)cc2nc(C(=O)OC)cn12` [Example 1-1]: the IC50 fell in the range of 500 to 2000 nM.

As to `COc1ccc(Nc2nc(-c3ccc(OC)c(OC)c3)cc3nccn23)c(O)c1` [Example 11-93], the IC50 is less than 500 nM.

As to `COc1cc(-c2cc3nccn3c(Sc3ccc(CCC(=O)O)cc3)n2)ccc1O` [Example 13-27], the IC50 was less than 500 nM.

On to `COc1ccc(-c2cc3nccn3c(SCc3ccccc3Cl)n2)cc1OC` [Example 9-27], for which the IC50 is less than 500 nM.

With `COc1ccc(-c2cc3nccn3c(Nc3ccccc3C(=O)NN)n2)cc1OC` [Example 11-13], the IC50 fell in the range of 2000 to 10000 nM.

As to `CCSc1nc(-c2ccc(OC(=O)OC)c(OC)c2)cc2nccn12` [Example 3-11], the IC50 is less than 500 nM.

For the molecule `COc1ccc(-c2cc3nccn3c(Nc3ccccc3C(=O)O)n2)cc1OC` [Example 11-77], the IC50 is less than 500 nM.

On to `COc1ccc(-c2cc3ncnn3c(Nc3ccccc3C(N)=O)n2)cc1OC` [Example 11-102], for which the IC50 is less than 500 nM.

Turning to `COc1ccc(-c2cc3nccn3c(Nc3ccc(CCN4C(=O)c5ccccc5C4=O)cc3)n2)cc1OC` [Example 9-26], the IC50 lay within 500 to 2000 nM.

`COc1ccc(-c2cc3nccn3c(Nc3ccc(N4CCOCC4)cc3)n2)cc1OC` [Example 11-32]: the IC50 is less than 500 nM.

Take `COc1ccc(-c2cc3nccn3c(SC(C)C)n2)cc1OC` [Example 9-9]: the IC50 is less than 500 nM.

Regarding `CCOC(=O)Cc1ccc(Nc2nc(-c3ccc(OC)c(OC)c3)cc3nccn23)cc1` [Example 9-23], the IC50 is less than 500 nM.

As to `COc1ccc(-c2cc3nccn3c(N3CCN(C)CC3)n2)cc1OC` [Example 9-37], the IC50 fell in the range of 500 to 2000 nM.

With `COc1ccc(-c2cc3nccn3c(N3CCOCC3)n2)cc1OC` [Example 9-30], the IC50 was 2000 to 10000 nM.

In the case of `COC(=O)[C@H](Cc1c[nH]c2ccccc12)Nc1nc(-c2ccc(OC)c(OC)c2)cc2nccn12` [Example 9-85], the IC50 is 2000 to 10000 nM.

On to `COc1ccc(-c2cc3nccn3c(Nc3ccc(S(=O)(=O)N4CCOCC4)cc3)n2)cc1OC` [Example 11-116], for which the IC50 is less than 500 nM.

With `COc1ccc(-c2cc3nccn3c(Nc3ccc(Br)cc3Cl)n2)cc1OC` [Example 11-88], the IC50 is less than 500 nM.

Turning to `COc1ccc(-c2cc3nccn3c(N(C)c3ccc(Cl)cc3)n2)cc1OC` [Example 11-45], the IC50 fell in the range of 500 to 2000 nM.

For the molecule `CCSc1nc(-c2ccc(OCCCN(C)CC)c(OC)c2)cc2nccn12` [Example 5-2], the IC50 was less than 500 nM.

In the case of `COc1ccc(-c2cc3nccn3c(Nc3cccc(S(C)(=O)=O)c3)n2)cc1OC` [Example 11-120], the IC50 was less than 500 nM.

On to `COc1ccc(-c2cc3nccn3c(Nc3ccc(C(=O)NCC(=O)O)cc3)n2)cc1OC` [Example 11-23], for which the IC50 is less than 500 nM.

With `COc1ccc(-c2cc3nccn3c(Nc3cccc(C(N)=O)c3)n2)cc1OC` [Example 11-11], the IC50 is less than 500 nM.

`CCSc1nc(-c2ccc(OS(C)(=O)=O)c(OC)c2)cc2nccn12` [Example 3-10]: the IC50 is 500 to 2000 nM.

Take `CCSc1nc(-c2ccc(OC)nc2)cc2nccn12` [Example 1-2]: the IC50 lay in the range of 2000 to 10000 nM.

On to `COc1ccc(-c2cc3nccn3c(Nc3ccc(C(=N)N)cc3)n2)cc1OC` [Example 11-67], for which the IC50 was less than 500 nM.

In the case of `CNc1nc(-c2ccc(OC)c(OC)c2)cc2nccn12` [Example 9-12], the IC50 was in the range of 500 to 2000 nM.

As for `COc1ccc(-c2cc3nccn3c(N3CCN(c4ccc(C)cc4)CC3)n2)cc1OC` [Example 9-44], the IC50 is 2000 to 10000 nM.

For `COc1ccc(-c2cc3nccn3c(Nc3cccc(OC(F)(F)F)c3)n2)cc1OC` [Example 11-69], the IC50 is less than 500 nM.

The values are drawn from US6911443B2 (Bayer Aktiengesellschaft, priority 2000, dated 2005).
